According to ChEMBL document CHEMBL1921731, “Novel antileukemic agents derived from tamibarotene and nitric oxide donors” (Bioorg Med Chem Lett, 2011):

Legend:
[1] = Induction of NO release from L-cysteine in phosphate buffer at pH 7.4 at 0.4 mM after 3 hrs by Griess assay; assay type: physicochemical; conditions: pH 7.4, 3 h, 400 µM
NB-4 [2] = assay: Antiproliferative activity against human NB4 cells after 48 hrs by MTT assay; assay type: functional, cell-based; conditions: NB-4, 48 h
HL-60 [3] = assay: Antiproliferative activity against human HL60 cells after 48 hrs by MTT assay; assay type: functional, cell-based; conditions: HL-60, 48 h
K562 [4] = assay: Antiproliferative activity against human K562 cells after 48 hrs by MTT assay; assay type: functional, cell-based; conditions: K562, 48 h
HL-60 [5] = assay: Ratio of tamibarotene IC50 to compound IC50 for human HL60 cells; assay type: functional
NB-4 [6] = assay: Ratio of tamibarotene IC50 to compound IC50 for human NB4 cells; assay type: functional
K562 [7] = assay: Ratio of tamibarotene IC50 to compound IC50 for human K562 cells; assay type: functional

SMILES	Activity [1]	IC50 (HL-60 [3]) [µM]	IC50 (K562 [4]) [µM]	IC50 (NB-4 [2]) [µM]	Ratio IC50 (HL-60 [5])	Ratio IC50 (NB-4 [6])	Ratio IC50 (K562 [7])
CC1(C)CCC(C)(C)c2cc(NC(=O)c3ccc(C(=O)NCCOC(=O)c4ccc(OCc5c(-c6ccccc6)no[n+]5[O-])cc4)cc3)ccc21	Active	12.3	> 1000	10.4	–	–	–
CC1(C)CCC(C)(C)c2cc(NC(=O)c3ccc(C(=O)NCCNC(=O)c4ccc(OCc5c(-c6ccccc6)no[n+]5[O-])cc4)cc3)ccc21	Active	1.14	13.3	1.93	–	–	–
CC1(C)CCC(C)(C)c2cc(NC(=O)c3ccc(C(=O)NCC(=O)OCc4c(-c5ccccc5)no[n+]4[O-])cc3)ccc21	Active	0.16	7.12	0.19	56	25	6
C[C@H](NC(=O)c1ccc(C(=O)Nc2ccc3c(c2)C(C)(C)CCC3(C)C)cc1)C(=O)OCc1c(-c2ccccc2)no[n+]1[O-]	Active	6.97	60.4	5.1	–	–	–
CC(C)[C@H](NC(=O)c1ccc(C(=O)Nc2ccc3c(c2)C(C)(C)CCC3(C)C)cc1)C(=O)OCc1c(-c2ccccc2)no[n+]1[O-]	Active	5.85	192	4.39	–	–	–
CC(C)C[C@H](NC(=O)c1ccc(C(=O)Nc2ccc3c(c2)C(C)(C)CCC3(C)C)cc1)C(=O)OCc1c(-c2ccccc2)no[n+]1[O-]	Active	0.74	64	0.97	–	–	–
CC1(C)CCC(C)(C)c2cc(NC(=O)c3ccc(C(=O)N[C@@H](Cc4ccccc4)C(=O)OCc4c(-c5ccccc5)no[n+]4[O-])cc3)ccc21	Active	0.5	22.6	0.75	–	–	–
CC1(C)CCC(C)(C)c2cc(NC(=O)c3ccc(C(=O)O)cc3)ccc21 [TAMIBAROTENE]	–	8.94	42.4	4.81	–	–	–

The next lines start with results.

Activity [1]	IC50 (HL-60 [3]) [µM]	IC50 (K562 [4]) [µM]	SMILES	IC50 (NB-4 [2]) [µM]	Ratio IC50 (HL-60 [5])	Ratio IC50 (NB-4 [6])	Ratio IC50 (K562 [7])
Active	395	> 1000	CC1(C)CCC(C)(C)c2cc(NC(=O)c3ccc(C(=O)OCCOC(=O)c4ccc(OCc5c(-c6ccccc6)no[n+]5[O-])cc4)cc3)ccc21	119	–	–	–
Active	185	> 1000	CC1(C)CCC(C)(C)c2cc(NC(=O)c3ccc(C(=O)OCCCOC(=O)c4ccc(OCc5c(-c6ccccc6)no[n+]5[O-])cc4)cc3)ccc21	140	–	–	–
Active	651	> 1000	CC1(C)CCC(C)(C)c2cc(NC(=O)c3ccc(C(=O)OCCCCOC(=O)c4ccc(OCc5c(-c6ccccc6)no[n+]5[O-])cc4)cc3)ccc21	952	–	–	–
Active	282	> 1000	CC1(C)CCC(C)(C)c2cc(NC(=O)c3ccc(C(=O)OCCCCCOC(=O)c4ccc(OCc5c(-c6ccccc6)no[n+]5[O-])cc4)cc3)ccc21	240	–	–	–
Active	486	> 1000	CC1(C)CCC(C)(C)c2cc(NC(=O)c3ccc(C(=O)OCCCCCCOC(=O)c4ccc(OCc5c(-c6ccccc6)no[n+]5[O-])cc4)cc3)ccc21	> 1000	–	–	–
